The source of these data is patent publication US11389423B2, “Pharmaceutical composition, excipient for the composition and use of the composition” (priority 2018, dated 2022).

The test system of data set [1] is DNA of male and female rats. The conditions noted are these: rats male and female, 500, 1000 and 2000 mg/kg orally, 48 hours, peripheral blood. The procedure:
The negative control group received placebo by gavage and the positive control was treated with cyclophosphamide monohydrate (20 mg/kg—Sigma-Aldrich) intraperitoneally.

For the next data set, the system named is male rabbits. Description: Effects on respiratory system, respiratory rate. Format: in vivo, New Zealand rabbits. The conditions noted are these: one hour after treatment. The procedure: Male New Zealand rabbits (n=6 per group) were used for pharmacological safety tests. All tests were performed orally (route recommended for humans) and the investigated parameters were determined after a single administration of CBD-SINT. CBD-SINT doses were determined by allometric extrapolation from the average dose used in human patients (25 mg/kg).
The dose of 51 mg/kg was used as the intermediate dose, stipulating a higher and a lower dose. Three dose ranges were used according to the Guide for Conducting Non-Clinical Toxicology and Pharmacological Safety Studies Necessary for Drug Development (ANVISA, 2013; Version 1.2). Thus, the doses used were 17, 51 and 170 mg/kg of CBD-SINT.
After 6-h fasting, three doses of CBD-SINT (17, 51 and 170 mg/kg) were administered to different groups of male rabbits by gavage. Placebo was administered to the control group (1 mL/kg). One hour after treatments, all rabbits remained conscious in the prone position. The respiratory rate was determined using a Kofranyi-Michaelis respirometer (Murphy, 2002). For arterial blood gas analysis, arterial blood samples were taken from the central ear artery and immediately processed. All parameters below were determined on a Cobas b 221 multiparametric blood gas analyzer (Roche Diagnostics, Rotkreuz, Switzerland): pH, PCO2 (mm Hg), PO2 (mm Hg), SO2(%), Htc (%), tHb (g/dL), Na+ (mmol/L), K+ (mmol/L), Ca2+ (mmol/L), Cl− (mmol/L), glucose (mg/dL), lactate (mmol/L), O2Hb (%), HHb (%), P50 (mm Hg), H+ (nmol/L), BE (nmol/L), BEecf (nmol/L), BB (mmol/L), cHCO3 (mmol/L), ctCO2 (B) (mmol/L), ctCO2 (P) (mmol/L) and ctO2 (% by volume).

Data set [2] has as its system rats with MPTP microinfusion into the substantia nigra. Description: Open field test (motor activity), MPTP model. Format: in vivo. The following applies: oral. The procedure:
The number of animals per group was ten (10) subjects. This number was estimated based on internationally recognized and scientifically validated protocols. The doses of the CBD-SINT formulation were determined by allometric extrapolation from the average dose used in human patients (600 mg/day, which in a 70 kg individual represents approximately 9 mg/kg), obtaining an average dose of ˜36 mg/kg CBD in rats.
For the calculation of the three doses, the intermediate dose was used as a reference, and then a higher and a lower dose was stipulated on a logarithmic scale. To stipulate the lowest dose, ⅓ of the median dose was used. For the higher dose, a safety factor of 10 times the lower dose was used. Thus, the doses of CBD-SINT used in this trial were: 12, 36 and 120 mg/kg. […]
CBD-SINT and placebo were administered orally (gavage) for 18 days prior to the administration of the neurotoxin by stereotactic surgery, and for another 10 days after surgery. After the administration of the neurotoxin, the behavioral (locomotor activity) and biochemical (brain dopamine dosage) parameters were evaluated after 24 hours and after 10 days. […]
The animals were placed on the central circle of the open field and its behavior evaluated for 5 minutes. […] Each animal was assessed individually, and the device was cleaned between animals with 5% alcohol solution (FIG. 15).

`C=C(C)[C@@H]1CCC(C)=C[C@H]1c1c(O)cc(CCCCC)cc1O` [CBD-SINT, Cannabidiol]: in data set [1], the “DNA damage (Damage Index and Damage Frequency) vs negative control (placebo)” value is listed as “none of the tested doses of CBD-SINT induced any significant changes”. For the same compound, the respiratory rate was 55±6.48 bpm in the data set with male rabbits (17 mg/kg by gavage), 57±5.43 bpm in the data set with male rabbits (51 mg/kg by gavage) and 56±5.66 bpm in the data set on male rabbits (170 mg/kg by gavage). Further, the “latency time and frequency of standing compared to CBD-FITO in the same concentration” value in data set [2] is recorded as “a lower concentration had a more effective result”.
